Patent US20110105509A1 (Wyeth, LLC, priority 2009, published 2011)

Molecular target: T1, CRTH2 (Homo sapiens, UniProt Q9Y5Y4)
T1 construct: expressed in transfected cells; host or cells: CHO cells
T1 sequence (Q9Y5Y4 1-395): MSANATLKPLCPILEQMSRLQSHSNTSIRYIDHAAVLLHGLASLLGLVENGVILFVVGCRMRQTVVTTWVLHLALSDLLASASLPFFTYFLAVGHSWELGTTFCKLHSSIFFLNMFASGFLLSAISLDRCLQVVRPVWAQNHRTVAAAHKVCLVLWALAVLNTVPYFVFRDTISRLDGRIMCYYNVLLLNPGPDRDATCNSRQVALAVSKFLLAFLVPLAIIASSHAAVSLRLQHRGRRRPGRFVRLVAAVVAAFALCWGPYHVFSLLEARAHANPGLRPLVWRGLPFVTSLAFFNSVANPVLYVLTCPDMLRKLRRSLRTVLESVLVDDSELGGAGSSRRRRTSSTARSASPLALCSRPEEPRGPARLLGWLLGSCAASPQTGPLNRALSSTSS
Test: FRET based competitive immunoassay (cAMP) in CRTH2 expressing CHO cells
Assay type: cell-based
Conditions: CRTH2 expressing CHO cells incubated with forskolin and PGD2; Eu3+ cryptate-labeled anti-cAMP and d2-labeled cAMP
Protocol: FRET Assay: To evaluate potency compounds were tested in a FRET based competitive immunoassay in which CRTH2 expressing CHO cells were incubated in the presence of forskolin and PGD2 along with Eu3+ cryptate-labeled anti-cAMP and d2-labeled cAMP.

SMILES | IC50 [nM]
Cc1c(-c2nn(Cc3nc4cc(C(F)(F)F)ccc4s3)c(=O)c3ccccc23)c2cc(Cl)ccc2n1CC(=O)O [Example 100, 2-(5-chloro-2-methyl-3-(4-oxo-3-((5-(trifluoromethyl)benzo[d]thiazol-2-yl)-methyl)-3,4-dihydrophthalazin-1-yl)-1H-indol-1-yl)acetic acid] | 81
Cc1c(-c2nn(Cc3cc(F)c(F)cc3F)c(=O)c3ccccc23)c2cc(Cl)ccc2n1CC(=O)O [Example 60, 2-(5-chloro-2-methyl-3-(4-oxo-3-(2,4,5-trifluorobenzyl)-3,4-dihydro-phthalazin-1-yl)-1H-indol-1-yl)acetic acid] | 11
Cc1c(-c2ccc(=O)n(Cc3cc(F)cc(F)c3)c2)c2cc(Cl)ccc2n1CC(=O)O [Example 294, 2-(5-Chloro-3-(1-(3,5-difluorobenzyl)-6-oxo-1,6-dihydropyridin-3-yl)-2-methyl-1H-indol-1-yl)acetic acid] | 2
Cc1c(-c2nn(C(C)C)c(=O)c3ccccc23)c2cc(F)ccc2n1CC(=O)O [Example 330, {5-fluoro-2-methyl-3-[3-(1-methylethyl)-4-oxo-3,4-dihydrophthalazin-1-yl]-1H-indol-1-yl}acetic acid] | 15
Cc1c(-c2nn(Cc3cccc(C(F)(F)F)c3)c(=O)c3ccccc23)c2cc(F)ccc2n1CC(=O)O [Example 203, 2-(5-fluoro-2-methyl-3-(4-oxo-3-(3-(trifluoromethyl)benzyl)-3,4-dihydro-phthalazin-1-yl)-1H-indol-1-yl)acetic acid] | 10
Cc1c(-c2ccc(=O)n(C)n2)c2ccccc2n1CC(=O)O [Example 183, 2-(2-methyl-3-(1-methyl-6-oxo-1,6-dihydropyridazin-3-yl)-1H-indol-1-yl)-acetic acid] | 4990
Cc1c(-c2nn(Cc3ccc(F)cc3)c(=O)c3ccccc23)c2cc(F)ccc2n1CC(=O)O [Example 111, 2-(5-fluoro-3-(3-(4-fluorobenzyl)-4-oxo-3,4-dihydrophthalazin-1-yl)-2-methyl-1H-indol-1-yl)acetic acid] | > 20
Cc1c(Cc2ccc(=O)n(Cc3ccc(F)cc3)n2)c2ccccc2n1CC(=O)O [Example 76, 2-(3-((1-(4-fluorobenzyl)-6-oxo-1,6-dihydropyridazin-3-yl)methyl)-2-methyl-1H-indol-1-yl)acetic acid] | 16
Cc1c(Cc2ccc(=O)n(Cc3ccc(F)cc3F)n2)c2cc(F)ccc2n1CC(=O)NS(C)(=O)=O [Example 320, 2-(3-((1-(2,4-difluorobenzyl)-6-oxo-1,6-dihydropyridazin-3-yl)methyl)-5-fluoro-2-methyl-1H-indol-1-yl)-N-(methylsulfonyl)acetamide] | > 1000
Cc1c(-c2nn(CC(C)(C)C)c(=O)c3ccccc23)c2cc(F)ccc2n1CC(=O)O [Example 126, 2-(5-fluoro-2-methyl-3-(3-neopentyl-4-oxo-3,4-dihydrophthalazin-1-yl)-1H-indol-1-yl)acetic acid] | 8
Cc1c(-c2nn(Cc3cccc(F)c3)c(=O)c3ccccc23)c2cc(F)ccc2n1CC(=O)O [Example 329, {5-fluoro-3-[3-(3-fluorobenzyl)-4-oxo-3,4-dihydrophthalazin-1-yl]-2-methyl-1H-indol-1-yl}acetic acid] | 3
Cc1c(-c2nn(CCC(C(F)(F)F)C(F)(F)F)c(=O)c3ccccc23)c2cc(F)ccc2n1CC(=O)O [Example 137, 2-(5-fluoro-2-methyl-3-(4-oxo-3-(4,4,4-trifluoro-3-(trifluoromethyl)butyl)-3,4-dihydrophthalazin-1-yl)-1H-indol-1-yl)acetic acid] | 21
Cc1c(-c2ccc(=O)n(Cc3ccccc3)c2)c2cc(F)ccc2n1CC(=O)NS(=O)(=O)C1CC1 [Example 319, 2-(3-(1-Benzyl-6-oxo-1,6-dihydropyridin-3-yl)-5-fluoro-2-methyl-1H-indol-1-yl)-N-(cyclo-propyl-sulfonyl)acetamide] | > 1000
Cc1c(-c2nn(Cc3ccccc3)c(=O)c3ccccc23)c2ccccc2n1CC(=O)N1CCCC1 [Example 49, 2-Benzyl-4-(2-methyl-1-(2-oxo-2-(pyrrolidin-1-yl)ethyl)-1H-indol-3-yl)phthalazin-1(2H)-one] | > 2000
Cc1c(-c2ccc(=O)n(Cc3cccnc3)c2)c2cc(F)ccc2n1CC(=O)O [Example 315, 2-(5-fluoro-2-methyl-3-(6-oxo-1-(pyridin-3-ylmethyl)-1,6-dihydropyridin-3-yl)-1H-indol-1-yl)acetic acid] | 32
Cc1c(Cc2ccc(=O)n(Cc3ccccc3F)c2)c2ccccc2n1CC(=O)O [Example 31, 2-(3-((1-(2-Fluorobenzyl)-6-oxo-1,6-dihydropyridin-3-yl)methyl)-2-methyl-1H-indol-1-yl)acetic acid] | 41
Cc1c(-c2ccc(=O)n(Cc3cccc(F)c3F)c2)c2cc(F)ccc2n1CCO [Example 305, 1-(2,3-difluorobenzyl)-5-(5-fluoro-1-(2-hydroxyethyl)-2-methyl-1H-indol-3-yl)-pyridin-2(1H)-one] | > 2000
Cc1c(-c2ccc(=O)n(Cc3cccc(C(F)(F)F)c3)n2)c2cc(F)ccc2n1CC(=O)O [Example 218, 2-(5-fluoro-2-methyl-3-(6-oxo-1-(3-(trifluoromethyl)benzyl)-1,6-dihydropyridazin-3-yl)-1H-indol-1-yl)acetic acid] | 24
